In patent publication US12611438B2, “Antiviral composition comprising a nucleolin-binding peptide” (ANYGEN CO., LTD., priority 2021, dated 2026):
Where two headings read alike, the source gives them in different places.

Experiments:
in vitro [1] = assay type: cell-based
Method: In order to determine the half maximal cytotoxic concentration (CC50) of AGM-330, confluent A549, MDCK, Vero E6, MA104, MARC-145, and LLC-PK cells grown in 96-well plates were treated with dilutions of NCL-targeting peptide ligands (AGM-330d-mCPP, AGM-330t-mCPP) prepared from a low concentration to […], followed by incubation for 24 hours. After removing each culture medium, 200 μL of a 3-(4,5-dimethylthiazol-2-yl)-2,5-diphenyl tetrazolium bromide (MTT) solution was added thereto, followed by incubation in a 5% CO2 incubator at 36° C. for 4 hours. Then, 150 μL of a DMSO solution was added to each well and then incubated at 20° C. Then, the optical density (OD) was measured at a wavelength of 570 nm with an enzyme-linked immunosorbent assay (ELISA) reader (Table 6).

SARS-COV-2 [2] = conditions: for Lung, Alveolar wall thickening: Mild, incidence / Lung, Alveolar wall thickening: Minimal, incidence / Lung, Alveolar wall thickening: Moderate, incidence / Lung, Alveolar wall thickening: Normal, incidence / Lung, Alveolar wall thickening: Severe, incidence / Lung, Hemorrhage: Mild, incidence / Lung, Hemorrhage: Minimal, incidence / Lung, Hemorrhage: Moderate, incidence / Lung, Hemorrhage: Normal, incidence / Lung, Hemorrhage: Severe, incidence / Lung, Hyaline membrane: Mild, incidence / Lung, Hyaline membrane: Minimal, incidence / Lung, Hyaline membrane: Moderate, incidence / Lung, Hyaline membrane: Normal, incidence / Lung, Hyaline membrane: Severe, incidence / Lung, Inflammatory cell, intestinal: Mild, incidence / Lung, Inflammatory cell, intestinal: Minimal, incidence / Lung, Inflammatory cell, intestinal: Moderate, incidence / Lung, Inflammatory cell, intestinal: Normal, incidence / Lung, Inflammatory cell, intestinal: Severe, incidence / Lung, Neutrophilic/lymphocytic cell, alveolar: Mild, incidence / Lung, Neutrophilic/lymphocytic cell, alveolar: Minimal, incidence / Lung, Neutrophilic/lymphocytic cell, alveolar: Moderate, incidence / Lung, Neutrophilic/lymphocytic cell, alveolar: Normal, incidence / Lung, Proteinaceous debris: Mild, incidence / Lung, Proteinaceous debris: Minimal, incidence / Lung, Proteinaceous debris: Moderate, incidence / Lung, Proteinaceous debris: Normal, incidence / Lung, Proteinaceous debris: Severe, incidence: 5 animals
Method: Syrian hamsters (Female, 11 weeks, Raon Bio Co., Ltd.) were infected with SARS-COV-2 (2×10^5 pfu/mL) through intranasal irrigation.
Body weight was measured on the day of infection, the second day after infection, and the fourth day after infection.
Autopsy was measured on the fourth day after infection.

in vitro [3] = conditions: African green monkey
influenza A virus = assay type: in vivo, C57BL/6 mice; conditions: 0.04, 0.2, and 1.00 mg/kg i.p. once a day for 5 days, observed 16 days
[4] = test system: A549, MDCK, Vero E6, MA104, MARC-145, and LLC-PK cells; conditions: 10 μM
[5] = 2 mg/kg, tail vein, C57BL/6 mice
Method: (§1) In order to determine whether or not the stability of the peptide is enhanced, the in vivo half-life of the peptide was analyzed. […] The absorbance was measured at a wavelength of 450 nm using a VersaMax ELISA plate reader (Molecular Devices) and pharmacokinetics were analyzed with the phoenix WinNonlin 8.1 (Pharsight Corporation, Mountain View, CA, USA) program.

in vivo = conditions: C57BL/6, mouse, serum, 2 mg/kg
Method: as §1

SARS-COV-2 [6] = test: microbe, parasite or virus in culture; conditions: Severe acute respiratory syndrome coronavirus 2, Vero C1008, 24 h

## CC[C@H](C)[C@H](NC(=O)[C@H](CCCNC(=N)N)NC(=O)CCN1C(=O)CC(SC[C@H](NC(=O)[C@H](CCCCNC(=O)CCOCCOCCOCCOCCOCCOCCNC(=O)[C@H](CCCCN)NC(=O)[C@H](CC(C)C)NC(=O)[C@H](Cc2ccc(O)cc2)NC(=O)[C@@H](NC(=O)[C@H](CCSC)NC(=O)[C@H](C)NC(=O)CNC(=O)[C@H](Cc2c[nH]cn2)NC(=O)[C@@H](N)CCCNC(=N)N)C(C)C)NC(=O)CCOCCOCCOCCOCCOCCOCCNC(=O)[C@H](CCCCN)NC(=O)[C@H](CC(C)C)NC(=O)[C@H](Cc2ccc(O)cc2)NC(=O)[C@@H](NC(=O)[C@H](CCSC)NC(=O)[C@H](C)NC(=O)CNC(=O)[C@H](Cc2c[nH]cn2)NC(=O)[C@@H](N)CCCNC(=N)N)C(C)C)C(=O)O)C1=O)C(=O)N[C@@H](CCSC)C(=O)N[C@@H](CCCNC(=N)N)C(=O)N[C@H](C(=O)N[C@@H](CC(C)C)C(=O)N[C@@H](CCCNC(=N)N)C(=O)N[C@H](C(=O)N[C@@H](CC(C)C)C(=O)N[C@@H](CCCCN)C(=O)N[C@@H](CC(C)C)C(=O)N[C@@H](C)C(=O)N[C@@H](CCCNC(=N)N)C(=O)O)[C@@H](C)CC)[C@@H](C)CC (stereo partly shown) [AGM-330d-mCPP]
In vitro [1]; African green monkey, MA-104, MTT
  CC50 at 24 h: 99.9 µM
In vitro [1]; African green monkey, MARC-145, MTT
  CC50 at 24 h: 98 µM
In vitro [1]; African green monkey, Vero E6, MTT
  CC50 at 24 h: 108 µM
In vitro [1]; human, A549, MTT
  CC50 at 24 h: 102 µM
In vitro [1]; human, HRT-18, MTT
  CC50 at 24 h: 89.5 µM
In vitro [1]; pig, LLC-PK, MTT
  CC50 at 24 h: 101 µM
SARS-COV-2 [2]; 6 mg/kg
  lung histopathological lesions versus virus control group: significantly reduced
SARS-COV-2 [2]; 6 mg/kg, autopsy fourth day after infection
  macroscopic lung changes versus virus control group: significantly alleviated
SARS-COV-2 [2]; 0.2, 2, 6 mg/kg i.p., eight times for four days, observed 5 days after infection
  mortality: no dead animals occurred
SARS-COV-2 [2]; 0.2, 2, 6 mg/kg i.p., day of infection, day 2, day 4
  body weight change versus virus control group: No significant weight change
SARS-COV-2 [2]; AGM-1: 0.2 mg/kg
  Lung, Alveolar wall thickening: Mild, incidence: 3
  Lung, Alveolar wall thickening: Minimal, incidence: 0
  Lung, Alveolar wall thickening: Moderate, incidence: 2
  Lung, Alveolar wall thickening: Normal, incidence: 0
  Lung, Alveolar wall thickening: Severe, incidence: 0
  Lung, Hemorrhage: Mild, incidence: 2
  Lung, Hemorrhage: Minimal, incidence: 3
  Lung, Hemorrhage: Moderate, incidence: 0
  Lung, Hemorrhage: Normal, incidence: 0
  Lung, Hemorrhage: Severe, incidence: 0
  Lung, Hyaline membrane: Mild, incidence: 3
  Lung, Hyaline membrane: Minimal, incidence: 0
  Lung, Hyaline membrane: Moderate, incidence: 2
  Lung, Hyaline membrane: Normal, incidence: 0
  Lung, Hyaline membrane: Severe, incidence: 0
  Lung, Inflammatory cell, intestinal: Mild, incidence: 2
  Lung, Inflammatory cell, intestinal: Minimal, incidence: 0
  Lung, Inflammatory cell, intestinal: Moderate, incidence: 3
  Lung, Inflammatory cell, intestinal: Normal, incidence: 0
  Lung, Inflammatory cell, intestinal: Severe, incidence: 0
  Lung, Neutrophilic/lymphocytic cell, alveolar: Mild, incidence: 3
  Lung, Neutrophilic/lymphocytic cell, alveolar: Minimal, incidence: 2
  Lung, Neutrophilic/lymphocytic cell, alveolar: Moderate, incidence: 0
  Lung, Neutrophilic/lymphocytic cell, alveolar: Normal, incidence: 0
  Lung, Proteinaceous debris: Mild, incidence: 2
  Lung, Proteinaceous debris: Minimal, incidence: 3
  Lung, Proteinaceous debris: Moderate, incidence: 0
  Lung, Proteinaceous debris: Normal, incidence: 0
  Lung, Proteinaceous debris: Severe, incidence: 0
SARS-COV-2 [2]; AGM-2: 2 mg/kg
  Lung, Alveolar wall thickening: Mild, incidence: 3
  Lung, Alveolar wall thickening: Minimal, incidence: 0
  Lung, Alveolar wall thickening: Moderate, incidence: 2
  Lung, Alveolar wall thickening: Normal, incidence: 0
  Lung, Alveolar wall thickening: Severe, incidence: 0
  Lung, Hemorrhage: Mild, incidence: 3
  Lung, Hemorrhage: Minimal, incidence: 2
  Lung, Hemorrhage: Moderate, incidence: 0
  Lung, Hemorrhage: Normal, incidence: 0
  Lung, Hemorrhage: Severe, incidence: 0
  Lung, Hyaline membrane: Mild, incidence: 3
  Lung, Hyaline membrane: Minimal, incidence: 0
  Lung, Hyaline membrane: Moderate, incidence: 2
  Lung, Hyaline membrane: Normal, incidence: 0
  Lung, Hyaline membrane: Severe, incidence: 0
  Lung, Inflammatory cell, intestinal: Mild, incidence: 1
  Lung, Inflammatory cell, intestinal: Minimal, incidence: 0
  Lung, Inflammatory cell, intestinal: Moderate, incidence: 3
  Lung, Inflammatory cell, intestinal: Normal, incidence: 0
  Lung, Inflammatory cell, intestinal: Severe, incidence: 1
  Lung, Neutrophilic/lymphocytic cell, alveolar: Mild, incidence: 3
  Lung, Neutrophilic/lymphocytic cell, alveolar: Minimal, incidence: 2
  Lung, Neutrophilic/lymphocytic cell, alveolar: Moderate, incidence: 0
  Lung, Neutrophilic/lymphocytic cell, alveolar: Normal, incidence: 0
  Lung, Proteinaceous debris: Mild, incidence: 2
  Lung, Proteinaceous debris: Minimal, incidence: 3
  Lung, Proteinaceous debris: Moderate, incidence: 0
  Lung, Proteinaceous debris: Normal, incidence: 0
  Lung, Proteinaceous debris: Severe, incidence: 0
SARS-COV-2 [2]; AGM-3: 6 mg/kg
  Lung, Alveolar wall thickening: Mild, incidence: 3
  Lung, Alveolar wall thickening: Minimal, incidence: 2
  Lung, Alveolar wall thickening: Moderate, incidence: 0
  Lung, Alveolar wall thickening: Normal, incidence: 0
  Lung, Alveolar wall thickening: Severe, incidence: 0
  Lung, Hemorrhage: Mild, incidence: 0
  Lung, Hemorrhage: Minimal, incidence: 5
  Lung, Hemorrhage: Moderate, incidence: 0
  Lung, Hemorrhage: Normal, incidence: 0
  Lung, Hemorrhage: Severe, incidence: 0
  Lung, Hyaline membrane: Mild, incidence: 1
  Lung, Hyaline membrane: Minimal, incidence: 4
  Lung, Hyaline membrane: Moderate, incidence: 0
  Lung, Hyaline membrane: Normal, incidence: 0
  Lung, Hyaline membrane: Severe, incidence: 0
  Lung, Inflammatory cell, intestinal: Mild, incidence: 3
  Lung, Inflammatory cell, intestinal: Minimal, incidence: 2
  Lung, Inflammatory cell, intestinal: Moderate, incidence: 0
  Lung, Inflammatory cell, intestinal: Normal, incidence: 0
  Lung, Inflammatory cell, intestinal: Severe, incidence: 0
  Lung, Neutrophilic/lymphocytic cell, alveolar: Mild, incidence: 0
  Lung, Neutrophilic/lymphocytic cell, alveolar: Minimal, incidence: 5
  Lung, Neutrophilic/lymphocytic cell, alveolar: Moderate, incidence: 0
  Lung, Neutrophilic/lymphocytic cell, alveolar: Normal, incidence: 0
  Lung, Proteinaceous debris: Mild, incidence: 1
  Lung, Proteinaceous debris: Minimal, incidence: 4
  Lung, Proteinaceous debris: Moderate, incidence: 0
  Lung, Proteinaceous debris: Normal, incidence: 0
  Lung, Proteinaceous debris: Severe, incidence: 0
In vitro [3]
  CC50 at 24 h: > 20 µM
Influenza A virus
  survival rate: significantly improved survival rate
[4]
  cytotoxicity at high concentration: did not exhibit significant cytotoxicity

## CSCC[C@H](NC(=O)[C@H](C)NC(=O)CNC(=O)[C@H](Cc1c[nH]cn1)NC(=O)[C@@H](N)CCCNC(=N)N)C(=O)N[C@H](C(=O)N[C@@H](Cc1ccc(O)cc1)C(=O)N[C@@H](CC(C)C)C(=O)N[C@@H](CCCCN)C(=O)NCCOCCOCCOCCOCCOCCOCCC(=O)NCCCC[C@H](NC(=O)CCOCCOCCOCCOCCOCCOCCNC(=O)[C@H](CCCCN)NC(=O)[C@H](CC(C)C)NC(=O)[C@H](Cc1ccc(O)cc1)NC(=O)[C@@H](NC(=O)[C@H](CCSC)NC(=O)[C@H](C)NC(=O)CNC(=O)[C@H](Cc1c[nH]cn1)NC(=O)[C@@H](N)CCCNC(=N)N)C(C)C)C(=O)NCCCC[C@H](NC(=O)[C@H](CCCCNC(=O)CCOCCOCCOCCOCCOCCOCCNC(=O)[C@H](CCCCN)NC(=O)[C@H](CC(C)C)NC(=O)[C@H](Cc1ccc(O)cc1)NC(=O)[C@@H](NC(=O)[C@H](CCSC)NC(=O)[C@H](C)NC(=O)CNC(=O)[C@H](Cc1c[nH]cn1)NC(=O)[C@@H](N)CCCNC(=N)N)C(C)C)NC(=O)CCOCCOCCOCCOCCOCCOCCNC(=O)[C@H](CCCCN)NC(=O)[C@H](CC(C)C)NC(=O)[C@H](Cc1ccc(O)cc1)NC(=O)[C@@H](NC(=O)[C@H](CCSC)NC(=O)[C@H](C)NC(=O)CNC(=O)[C@H](Cc1c[nH]cn1)NC(=O)[C@@H](N)CCCNC(=N)N)C(C)C)C(=O)N[C@@H](CS)C(=O)O)C(C)C [AGM-330t]
[5]
  in vivo stability compared with monomeric or dimeric peptides: higher stability
In vivo; intravenous
  Cmax: 1880 ± 670 ng/mL
  Tmax: 0.167 h
  half-life: 9.43 ± 1.21 h
In vivo; iv
  AUC: 21400 ± 810 ng·h/mL

## CCN(CC)CCCC(C)Nc1ccnc2cc(Cl)ccc12 (stereo not shown) [Chloroquine, chloroquine]
SARS-COV-2 [6]
  IC50: 8.25 µM
